Source: ChEMBL document CHEMBL1201862, “PubChem BioAssay data set” (2004)
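Following 48 hours of exposure in 96-well plates, responses at five concentrations were used to interpolate endpoints linearly. GI50 marks 50% less growth.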 Activity calls are given as the source filed them. Rule as the data show it: active = GI50 up to about 1.1 µM and inactive = higher.

Assays:
Assay in all cases: inhibition of tumour cell growth, NCI panel, 48 h
[1] = test system: A498
[2] = test system: OVCAR-3
[3] = test system: EKVX
[4] = test system: COLO 205
[5] = test system: TK-10
[6] = test system: MDA-MB-231
[7] = test system: SK-MEL-5
[8] = test system: SW-620
[9] = test system: IGROV-1
[10] = test system: A549
[11] = test system: RPMI-8226
[12] = test system: CCRF-CEM
[13] = test system: HOP-62
[14] = test system: 786-0
[15] = test system: NCI-H226
[16] = test system: SN12C
[17] = test system: RXF 393
[18] = test system: Malme-3M
[19] = test system: MDA-N
[20] = test system: SK-OV-3

SMILES: COc1cc2oc3cc(=O)cc4oc(-c5ccccc5)cc(c2c2c1CCC(c1ccccc1)O2)c43 (stereo not given)
- GI50 [1]: 50.4 µM (inactive)
- GI50 [2]: 26 µM (inactive)
- GI50 [3]: 65.6 µM (inactive)
- GI50 [4]: 18.8 µM (inactive)
- GI50 [5]: 26.6 µM (inactive)
- GI50 [6]: 22.3 µM (inactive)
- GI50 [7]: 20.4 µM (inactive)
- GI50 [8]: 67.1 µM (inactive)
- GI50 [9]: 33.1 µM (inactive)
- GI50 [10]: 72.8 µM (inactive)
- GI50 [11]: 3.34 µM (inactive)
- GI50 [12]: 61 µM (inactive)
- GI50 [13]: 41 µM (inactive)
- GI50 [14]: 48.2 µM (inactive)
- GI50 [15]: > 100 µM (inactive)
- GI50 [16]: 25.2 µM (inactive)
- GI50 [17]: 54.7 µM (inactive)
- GI50 [18]: 67.3 µM (inactive)
- GI50 [19]: 22 µM (inactive)
- GI50 [20]: 35 µM (inactive)

SMILES: CNC(=S)N/N=C/c1ccc([N+](=O)[O-])s1
- GI50 [1]: > 10 µM (inactive)
- GI50 [2]: 2.23 µM (inactive)
- GI50 [3]: > 10 µM (inactive)
- GI50 [4]: 1.81 µM (inactive)
- GI50 [5]: > 10 µM (inactive)
- GI50 [6]: > 10 µM (inactive)
- GI50 [7]: > 10 µM (inactive)
- GI50 [8]: > 10 µM (inactive)
- GI50 [9]: > 10 µM (inactive)
- GI50 [10]: 7.38 µM (inactive)
- GI50 [11]: > 10 µM (inactive)
- GI50 [12]: > 10 µM (inactive)
- GI50 [13]: > 10 µM (inactive)
- GI50 [14]: > 10 µM (inactive)
- GI50 [15]: > 10 µM (inactive)
- GI50 [16]: > 10 µM (inactive)
- GI50 [17]: > 10 µM (inactive)
- GI50 [18]: 7.53 µM (inactive)
- GI50 [19]: > 10 µM (inactive)
- GI50 [20]: > 10 µM (inactive)

SMILES: COc1cc(NS(C)(=O)=O)ccc1NCc1c[nH]c2ccc3nc(C)ccc3c12
- GI50 [1]: 20.3 µM (inactive)
- GI50 [2]: 27.6 µM (inactive)
- GI50 [3]: > 100 µM (inactive)
- GI50 [4]: 55 µM (inactive)
- GI50 [5]: 38.7 µM (inactive)
- GI50 [6]: 61.1 µM (inactive)
- GI50 [7]: 42 µM (inactive)
- GI50 [8]: 30.2 µM (inactive)
- GI50 [9]: 73.6 µM (inactive)
- GI50 [10]: > 100 µM (inactive)
- GI50 [11]: 17.1 µM (inactive)
- GI50 [12]: 17.7 µM (inactive)
- GI50 [13]: 55.5 µM (inactive)
- GI50 [14]: 30.4 µM (inactive)
- GI50 [15]: 45.7 µM (inactive)
- GI50 [16]: 60.5 µM (inactive)
- GI50 [17]: 22.5 µM (inactive)
- GI50 [18]: > 100 µM (inactive)
- GI50 [19]: 41.2 µM (inactive)
- GI50 [20]: 96.4 µM (inactive)

SMILES: O=C1c2ccccc2C(=O)c2c(NC(=O)C(Cl)CCl)cccc21 (stereo not given)
- GI50 [1]: 19.2 µM (inactive)
- GI50 [2]: 11 µM (inactive)
- GI50 [3]: 19.4 µM (inactive)
- GI50 [4]: 6.47 µM (inactive)
- GI50 [5]: 4.37 µM (inactive)
- GI50 [6]: 6.53 µM (inactive)
- GI50 [7]: 9.66 µM (inactive)
- GI50 [8]: 2.86 µM (inactive)
- GI50 [9]: 5.02 µM (inactive)
- GI50 [10]: 20.4 µM (inactive)
- GI50 [11]: 0.628 µM (active)
- GI50 [12]: 0.163 µM (active)
- GI50 [13]: 10.5 µM (inactive)
- GI50 [14]: 2.87 µM (inactive)
- GI50 [15]: 17.5 µM (inactive)
- GI50 [16]: 7.67 µM (inactive)
- GI50 [17]: 6.64 µM (inactive)
- GI50 [18]: 18.7 µM (inactive)
- GI50 [19]: 10.4 µM (inactive)
- GI50 [20]: 19 µM (inactive)

SMILES: CC1CCN(CC(=O)N2c3ccccc3Sc3cc4ccccc4cc32)CC1
- GI50 [1]: > 100 µM (inactive)
- GI50 [2]: > 100 µM (inactive)
- GI50 [3]: > 100 µM (inactive)
- GI50 [4]: > 100 µM (inactive)
- GI50 [5]: > 100 µM (inactive)
- GI50 [6]: > 100 µM (inactive)
- GI50 [7]: > 100 µM (inactive)
- GI50 [8]: > 100 µM (inactive)
- GI50 [9]: > 100 µM (inactive)
- GI50 [10]: > 100 µM (inactive)
- GI50 [11]: > 100 µM (inactive)
- GI50 [12]: 84.7 µM (inactive)
- GI50 [13]: > 100 µM (inactive)
- GI50 [14]: > 100 µM (inactive)
- GI50 [15]: > 100 µM (inactive)
- GI50 [16]: 38.7 µM (inactive)
- GI50 [17]: > 100 µM (inactive)
- GI50 [18]: > 100 µM (inactive)
- GI50 [19]: > 100 µM (inactive)
- GI50 [20]: > 100 µM (inactive)
